Data from article PMC7464201, “Synthesis and Cytotoxic Activity of Novel C-23-Modified Asiatic Acid Derivatives” (Molecules, 2020).

Columns and labels:
[1] = tested on: human ovarian (SKOV-3) cancer cell line; experiment: MTT cytotoxicity assay, SKOV-3; format: cell-based; conditions: for IC50: Homo sapiens, SK-OV-3, 72 h, six concentrations, mean ± SD of three independent experiments; for IC50 / cytotoxic activity against SKOV-3 cell line (in words): MTT
Procedure: (§1) To establish a SAR of the C-3 (R2) and C-23 (R1) of the AA derivatives, new compounds were subjected to MTT assays to evaluate their in-vitro antiproliferative activities against ovarian (SKOV-3) and colon (HCT-116) cancer cell lines, the IC50 values (the concentration that inhibits 50% of cell growth) of which are summarized in Table 1. Doxorubicin was used as the positive drug.
(§2) HCT116, SKOV-3, A549, A2780, HepG2, HL-60 and MCF-7 cells were incubated in DMEM with 10% heat-inactivated FBS in a humidified atmosphere of 5.0% CO2 at 37 °C. The in-vitro cytotoxicity of AA derivatives was determined using MTT assay. A 100-μL volume of culture medium at a concentration of 3 × 10^4 cell/mL was added to 96-well plate wells, which were maintained in a humidified atmosphere of 5.0% CO2 at 37 °C. After 24 h, 10 μL solution of AA derivatives and doxorubicin dissolved in DMSO and phophate buffered saline (PBS) and then diluted with DMEM under a concentration gradient, was added in the wells for final concentrations of 100, 10, 1, 0.1, 0.01, 0.001 μM of compounds in HCT116 and SKOV-3 cells and 125, 25, 5, 1, 0.2, 0.04 μM in A549, A2780, HepG2, HL-60 and MCF-7 cells. After 72 h incubation in a humidified atmosphere of 5.0% CO2 at 37 °C, 20 μl MTT solution (5 mg/mL) was added into each well and the cells were incubated. After 4 h, 100 μL HCl aqueous solution (0.01 M) with 10% SDS and 5% isobutanol was added into each well to dissolve the precipitated formazan and the absorbance was read at 570 nm on Thermo Scientific Varioskan Flash plate reader. All IC50 values were averaged from three independent experiments.

[2] = tested on: human colon (HCT-116) cancer cell line; experiment: MTT cytotoxicity assay, HCT116; format: cell-based; conditions: for IC50: Homo sapiens, HCT-116, 72 h, six concentrations, mean ± SD of three independent experiments
Procedure: as §1, §2

Structure (SMILES) | IC50 [1] [µM] | IC50 ([2]; MTT) [µM] | also measured
CO[C@@H]1C[C@@]2(C)[C@@H](CC[C@]3(C)[C@@H]2CC=C2[C@@H]4[C@@H](C)[C@H](C)CC[C@]4(C(=O)NCc4ccccc4)CC[C@]23C)[C@](C)(C(=O)O)[C@H]1O [Compound 7, α-Methoxy-3β-Hydroxy-Urs-12-Ene-28-Benzylamide-23-Oic Acid] | 31.9 ± 2.59 | 16.7 ± 1.68 | 
COC(=O)C(Cc1ccccc1)NC(=O)C1(C)C(O)C(OC)CC2(C)C1CCC1(C)C2CC=C2C3C(C)C(C)CCC3(C(=O)NCc3ccccc3)CCC21C [Compound 13h, N-(2α-Methoxy-3β-Hydroxy-Urs-12-Ene-28-Benzylamide-23-oyl)-L-Phenylalanine Methyl Ester] | > 100 | > 50 | cytotoxic activity against SKOV-3 cell line (in words) [1]: not active
CNC(=O)[C@@]1(C)[C@@H]2CC[C@]3(C)[C@H](CC=C4[C@@H]5[C@@H](C)[C@H](C)CC[C@]5(C(=O)NCc5ccccc5)CC[C@]43C)[C@@]2(C)C[C@@H](OC)[C@@H]1O [Compound 13b, α-Methoxy-3β-Hydroxy-Urs-12-Ene-28-Benzyl Amide-23-Methylamide] |  | 7.45 ± 3.53 | 
CCNC(=O)[C@@]1(C)[C@@H]2CC[C@]3(C)[C@H](CC=C4[C@@H]5[C@@H](C)[C@H](C)CC[C@]5(C(=O)NCc5ccccc5)CC[C@]43C)[C@@]2(C)C[C@@H](OC)[C@@H]1O [Compound 13c, α-Methoxy-3β-Hydroxy-Urs-12-Ene-28-Benzyl Amide-23-Ethylamide] |  | 11 ± 4.28 | 
CO[C@@H]1C[C@@]2(C)[C@@H](CC[C@]3(C)[C@@H]2CC=C2[C@@H]4[C@@H](C)[C@H](C)CC[C@]4(C(=O)NCc4ccccc4)CC[C@]23C)[C@](C)(C(=O)NC(C)C)[C@H]1OC(C)=O [Compound 14d, α-Methoxy-3β-Acetoxy-Urs-12-Ene-28-Benzyl Amide-23-Isopropylamide] | > 100 | > 100 | 
COC(=O)C(Cc1ccccc1)NC(=O)C1(C)C(OC(C)=O)C(OC)CC2(C)C1CCC1(C)C2CC=C2C3C(C)C(C)CCC3(C(=O)NCc3ccccc3)CCC21C [Compound 14h, N-(2α-Methoxy-3β-Acetoxy-Urs-12-Ene-28-Benzylamide-23-Oyl)-L-Phenylalanine Methyl Ester] | > 100 | > 100 | 
CCNC(=O)[C@@]1(C)[C@@H]2CC[C@]3(C)[C@H](CC=C4[C@@H]5[C@@H](C)[C@H](C)CC[C@]5(C(=O)NCc5ccccc5)CC[C@]43C)[C@@]2(C)C[C@@H](OC)[C@@H]1OC(C)=O [Compound 14c, α-Methoxy-3β-Acetoxy-Urs-12-Ene-28-Benzyl Amide-23-Ethylamide] | > 100 | > 100 | 
CO[C@@H]1C[C@@]2(C)[C@@H](CC[C@]3(C)[C@@H]2CC=C2[C@@H]4[C@@H](C)[C@H](C)CC[C@]4(C(=O)NCc4ccccc4)CC[C@]23C)[C@](C)(C=O)C1=O [Compound 5, α-Methoxy-3,23-Dioxo-Urs-12-Ene-28-Benzylamide] | > 100 | 26 ± 6.68 | 
CO[C@@H]1C[C@]2(C)[C@H]3CC=C4[C@@H]5[C@@H](C)[C@H](C)CC[C@]5(C(=O)NCc5ccccc5)CC[C@@]4(C)[C@]3(C)CC[C@H]2[C@](C)(C=O)[C@H]1OC(C)=O [Compound 12, α-Methoxy-3β-Acetoxy-23-Oxo-Urs-12-Ene-28-Benzyl Amide] | > 100 | 6.69 ± 1.15 | 
CO[C@@H]1C[C@@]2(C)[C@@H](CC[C@]3(C)[C@@H]2CC=C2[C@@H]4[C@@H](C)[C@H](C)CC[C@]4(C(=O)NCc4ccccc4)CC[C@]23C)[C@](C)(C(N)=O)[C@H]1OC(C)=O [Compound 14a, α-Methoxy-3β-Acetoxy-Urs-12-Ene-28-Benzyl Amide-23-Amide] | 7.12 ± 2.61 | 6.52 ± 3.03 | 
COC(=O)[C@@]1(C)[C@@H]2CC[C@]3(C)[C@H](CC=C4[C@@H]5[C@@H](C)[C@H](C)CC[C@]5(C(=O)NCc5ccccc5)CC[C@]43C)[C@@]2(C)C[C@@H](OC)[C@@H]1O [Compound 9, α-Methoxy-3β-Hydroxy-Urs-12-Ene-28-Benzylamide-23-Methyl Ester] | 6.81 ± 3.87 | 3.07 ± 1.48 | fold more active than AA against SKOV-3 cell line ([1]; relative to AA): 3 fold; fold more active than AA against HCT116 cell line ([2]; relative to AA): 8 fold
CO[C@@H]1C[C@@]2(C)[C@@H](CC[C@]3(C)[C@@H]2CC=C2[C@@H]4[C@@H](C)[C@H](C)CC[C@]4(C(=O)NCc4ccccc4)CC[C@]23C)[C@](C)(C(=O)N(C)C)[C@H]1O [Compound 13j, α-Methoxy-3β-Hydroxy-Urs-12-Ene-28-Benzyl Amide-23-Dimethylamide] |  | 9.6 ± 4.58 | 
CO[C@@H]1C[C@@]2(C)[C@@H](CC[C@]3(C)[C@@H]2CC=C2[C@@H]4[C@@H](C)[C@H](C)CC[C@]4(C(=O)NCc4ccccc4)CC[C@]23C)[C@](C)(C(N)=O)[C@H]1O [Compound 13a, α-Methoxy-3β-Hydroxy-Urs-12-Ene-28-Benzyl Amide-23-Amide] |  | 7.45 ± 1.62 | 
CCOC(=O)CCCNC(=O)[C@@]1(C)[C@@H]2CC[C@]3(C)[C@H](CC=C4[C@@H]5[C@@H](C)[C@H](C)CC[C@]5(C(=O)NCc5ccccc5)CC[C@]43C)[C@@]2(C)C[C@@H](OC)[C@@H]1OC(C)=O [Compound 14i, N-(2α-Methoxy-3β-Acetoxy-Urs-12-Ene-28-Benzylamide-23-Oyl)-4-Aminobutyric Ethyl Ester] | > 100 | > 100 | 
COC(=O)[C@]1(C)C(=O)[C@H](OC)C[C@]2(C)[C@H]3CC=C4[C@@H]5[C@@H](C)[C@H](C)CC[C@]5(C(=O)NCc5ccccc5)CC[C@@]4(C)[C@]3(C)CC[C@@H]12 [Compound 11, α-Methoxy-3-Oxo-Urs-12-Ene-28-Benzyl Amide-23-Methyl Ester] | > 100 | > 100 | cytotoxic activity against SKOV-3 cell line (in words) [1]: lost activity; cytotoxic activity against HCT116 cell line (in words) ([2]; MTT): lost activity
COC(=O)C(NC(=O)C1(C)C(O)C(OC)CC2(C)C1CCC1(C)C2CC=C2C3C(C)C(C)CCC3(C(=O)NCc3ccccc3)CCC21C)C(C)C [Compound 13g, N-(2α-Methoxy-3β-Hydroxy-Urs-12-Ene-28-Benzylamide-23-Oyl)-L-Valine Methyl Ester] |  | 9.69 ± 1.64 | 
CNC(=O)[C@@]1(C)[C@@H]2CC[C@]3(C)[C@H](CC=C4[C@@H]5[C@@H](C)[C@H](C)CC[C@]5(C(=O)NCc5ccccc5)CC[C@]43C)[C@@]2(C)C[C@@H](OC)[C@@H]1OC(C)=O [Compound 14b, α-Methoxy-3β-Acetoxy-Urs-12-Ene-28-Benzyl Amide-23-Methylamide] |  | 34.2 ± 7.87 | 
CO[C@@H]1C[C@@]2(C)[C@@H](CC[C@]3(C)[C@@H]2CC=C2[C@@H]4[C@@H](C)[C@H](C)CC[C@]4(C(=O)NCc4ccccc4)CC[C@]23C)[C@](C)(C(=O)NC(C)C)[C@H]1O [Compound 13d, α-Methoxy-3β-Hydroxy-Urs-12-Ene-28-Benzyl Amide-23-Isopropylamide] |  | 8.57 ± 3.04 | 
COC(=O)C(C)NC(=O)C1(C)C(OC(C)=O)C(OC)CC2(C)C1CCC1(C)C2CC=C2C3C(C)C(C)CCC3(C(=O)NCc3ccccc3)CCC21C [Compound 14f, N-(2α-Methoxy-3β-Acetoxy-Urs-12-Ene-28-Benzylamide-23-oyl)-L-Alanine Methyl Ester] | > 100 | > 50 | 
CCOC(=O)CCCNC(=O)[C@@]1(C)[C@@H]2CC[C@]3(C)[C@H](CC=C4[C@@H]5[C@@H](C)[C@H](C)CC[C@]5(C(=O)NCc5ccccc5)CC[C@]43C)[C@@]2(C)C[C@@H](OC)[C@@H]1O [Compound 13i, N-(2α-Methoxy-3β-Hydroxy-Urs-12-Ene-28-Benzylamide-23-Oyl)-4-Aminobutyric Ethyl Ester] |  | 15.2 ± 1.99 | 
C#CCNC(=O)[C@@]1(C)[C@@H]2CC[C@]3(C)[C@H](CC=C4[C@@H]5[C@@H](C)[C@H](C)CC[C@]5(C(=O)NCc5ccccc5)CC[C@]43C)[C@@]2(C)C[C@@H](OC)[C@@H]1OC(C)=O [Compound 14e, α-Methoxy-3β-Acetoxy-Urs-12-Ene-28-Benzyl Amide-23-Propargylamide] | > 100 | > 100 | 
C#CCNC(=O)[C@@]1(C)[C@@H]2CC[C@]3(C)[C@H](CC=C4[C@@H]5[C@@H](C)[C@H](C)CC[C@]5(C(=O)NCc5ccccc5)CC[C@]43C)[C@@]2(C)C[C@@H](OC)[C@@H]1O [Compound 13e, α-Methoxy-3β-Hydroxy-Urs-12-Ene-28-Benzyl Amide-23-Propargylamide] | 6.72 ± 4.32 | 8.03 ± 2.79 | 
COC(=O)C(C)NC(=O)C1(C)C(O)C(OC)CC2(C)C1CCC1(C)C2CC=C2C3C(C)C(C)CCC3(C(=O)NCc3ccccc3)CCC21C [Compound 13f, N-(2α-Methoxy-3β-Hydroxy-Urs-12-Ene-28-Benzylamide-23-Oyl)-L-Alanine Methyl Ester] | 3.09 ± 1.54 | 4.35 ± 1.05 | 
CO[C@@H]1C[C@]2(C)[C@H]3CC=C4[C@@H]5[C@@H](C)[C@H](C)CC[C@]5(C(=O)NCc5ccccc5)CC[C@@]4(C)[C@]3(C)CC[C@H]2[C@](C)(C=O)[C@H]1O [Compound 6, α-Methoxy-3β-Hydroxy-23-Oxo-Urs-12-Ene-28-Benzylamide] |  | 8.46 ± 1.64 | 
